Structures are written as SMILES.

One data set in a line: Solubility character. The data set is classed as physicochemical.
Data set [1] concerns HPV-16 transformed immortal mouse epithelial cells (C3). Particulars: intratumor injection; cited from earlier work.
For data set [2], the system named is human mammary carcinoma MX-1 xenograft. The conditions noted are these: intratumor injection or topical application of NDGA; cited from earlier work.

`C[C@H](Cc1ccc(OC(=O)CN(C)C)c(OC(=O)CN(C)C)c1)[C@@H](C)Cc1ccc(OC(=O)CN(C)C)c(OC(=O)CN(C)C)c1` [G4N, meso-1,4-bis[3,4-(dimethylaminoacetoxy)phenyl]-(2R,3S)-dimethylbutane]: in the data set “Solubility character”, the “Water solubility / hydrophilic or lipophilic character” value is listed as “water-soluble, hydrophilic”. Moreover, the “Suppression of tumor growth / tumoricidal activity” value in data set [1] is “some evidence of suppression of tumor growth”.
In the case of `CC(Cc1ccc(O)c(O)c1)C(C)Cc1ccc(O)c(O)c1` (stereo not drawn) [NDGA, nordihydroguaiaretic acid], in data set [2], the “Inhibition of tumor growth” value is reported as “Some evidence of inhibition of tumor growth”.

The record behind these values is patent publication US7728036B2, “Methods for delivery of catecholic butanes for treatment of tumors” (priority 2003, dated 2010).
